Experimental data taken from US11731958B2, “Carboxamide compounds and uses thereof” (Incyte Corporation, priority 2018, dated 2023).

Biological target: HPK1 (Homo sapiens (Human), UniProt Q92918)
Assay: HPK1 Kinase Binding Assay
Details: LanthaScreen tracer 222 binding, active HPK1, one hour at 25° C.
Procedure: A stock solution of 1 mM test compound was prepared in DMSO. The compound plate was prepared by 3-fold and 11-point serial dilutions. 0.1 μL of the compound in DMSO was transferred from the compound plate to the white 384 well polystyrene plates. The assay buffer contained 50 mM HEPES, pH 7.5, 0.01% Tween-20, 5 mM MgCl2, 0.01% BSA, and 5 mM DTT. 5 μL of 4 nM active HPK1 (SignalChem M23-11G) prepared in the buffer was added to the plate. The enzyme concentration given was based on the given stock concentration reported by the vender. […] After one hour incubation at 25° C., the plates were read on a PHERAstar FS plate reader (BMG Labtech). Ki values were determined.

Sequence of HPK1 (Q92918 1-346): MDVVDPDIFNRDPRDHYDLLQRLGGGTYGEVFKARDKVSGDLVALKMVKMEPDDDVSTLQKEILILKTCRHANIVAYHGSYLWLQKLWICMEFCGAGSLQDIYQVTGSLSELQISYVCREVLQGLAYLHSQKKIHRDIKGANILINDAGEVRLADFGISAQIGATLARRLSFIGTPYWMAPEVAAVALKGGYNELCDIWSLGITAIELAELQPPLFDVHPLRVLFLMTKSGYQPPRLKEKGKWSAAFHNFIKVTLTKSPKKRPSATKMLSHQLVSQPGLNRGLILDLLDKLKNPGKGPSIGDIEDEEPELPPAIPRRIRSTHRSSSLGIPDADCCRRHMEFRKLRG

Ki [nM] | Structure (SMILES)
< 100 | COc1cccc(F)c1-c1nccc(C(=O)Nc2cc(F)c(N3CCC3)cc2N2C[C@@H]3C[C@H]2CN3)n1 [Example 29, N-(4-(Azetidin-1-yl)-2-((1S,4S)-2,5-diazabicyclo[2.2.1]heptan-2-yl)-5-fluorophenyl)-2-(2-fluoro-6-methoxyphenyl)pyrimidine-4-carboxamide]
< 100 | COc1cccc(F)c1-c1nccc(C(=O)Nc2cc(F)c(N3CCOCC3)cc2N2C[C@@H]3C[C@H]2CN3)n1 [Example 28, N-(2-((1S,4S)-2,5-Diazabicyclo[2.2.1]heptan-2-yl)-5-fluoro-4-morpholinophenyl)-2-(2-fluoro-6-methoxyphenyl)pyrimidine-4-carboxamide]
< 100 | COc1cccc(F)c1-c1nccc(C(=O)Nc2ccc(-c3c(C)nn(C)c3C)cc2N2C[C@@H]3C[C@H]2CN3)n1 [Example 27, N-(2-((1S,4S)-2,5-Diazabicyclo[2.2.1]heptan-2-yl)-4-(1,3,5-trimethyl-1H-pyrazol-4-yl)phenyl)-2-(2-fluoro-6-methoxyphenyl)pyrimidine-4-carboxamide]
< 100 | COc1cccc(F)c1-c1nccc(C(=O)Nc2cc(F)c(CN3CCOCC3)cc2N2C[C@@H]3C[C@H]2CN3)n1 [Example 30, N-(2-((1S,4S)-2,5-Diazabicyclo[2.2.1]heptan-2-yl)-5-fluoro-4-(morpholinomethyl)phenyl)-2-(2-fluoro-6-methoxyphenyl)pyrimidine-4-carboxamide]
